Results published in patent US6413517B1, “Identification of broadly reactive DR restricted epitopes” (Epimmune, Inc., priority 1997, dated 2002).
Read-outs that look alike come from different tables or passages of the source.

How the values were obtained:
[1] = test system: panel of purified HLA DR molecules; type: binding, human
DRB1*0101 (DR1) = biological target: T1, DRB1*0101 (DR1) (Homo sapiens, UniProt P01903+P01911, A100R/D57E/F55L/F60I/F76Y/I96L/L162R/M171V/P40L/Q125E/R42F/V115G/Y59C); assay: biochemical; type: binding; conditions: Binding Capacity (IC 50% nM) DR1,4,7 DRB1
T1 construct: Epstein-Barr virus (EBV) transformed homozygous cell lines were used as sources; endogenous in cells; host or cells: LG2 (EBV-transformed homozygous B cell line)

DRB1*0401 (DR4w4) = biological target: T2, DRB1*0401 (DR4w4) (Homo sapiens, UniProt P01903+P01911, A100K/A169T/F76Y/I96L/K127E/L162R/M171V/N62H/P40V/Q125Y/R42H/S133A/S149N/S66Y/V115G/V209L/W38E); assay: biochemical; type: binding
T2 construct: Epstein-Barr virus (EBV) transformed homozygous cell lines were used as sources; endogenous in cells; host or cells: PREISS (EBV-transformed homozygous B cell line)

DRB1*0701 (DR7) = biological target: T3, DRB1*0701 (DR7) (Homo sapiens, UniProt P01903+P01911, A100R/A102G/A103Q/D57E/D86V/E43K/F76Y/K127E/L162R/M171V/P40G/Q125H/Q99D/R33Q/R42Y/R54Q/S133A/S66F/T210M/V115G/Y107V/Y59L/Y89S); assay: biochemical; type: binding
T3 construct: Epstein-Barr virus (EBV) transformed homozygous cell lines were used as sources; endogenous in cells; host or cells: PITOUT (EBV-transformed homozygous B cell line)

DRB1*1501 (DR2w2b) = biological target: T4, DRB1*1501 (DR2w2b) (Homo sapiens, UniProt P01903+P01911); assay: biochemical; type: binding
T4 construct: expressed in transfected cells; host or cells: transfected fibroblasts L466.1

DRB5*0101 (DR2w2a) = biological target: T5, DRB5*0101 (DR2w2a) (Homo sapiens, UniProt P01903+Q30154); assay: biochemical; type: binding
T5 construct: Epstein-Barr virus (EBV) transformed homozygous cell lines were used as sources; endogenous in cells; host or cells: GM3107 (EBV-transformed homozygous B cell line)

DRB1*0405 (DR4w15) = biological target: T6, DRB1*0405 (DR4w15) (Homo sapiens, UniProt P01903+P01911, A100R/A169T/D86S/F76Y/I96L/K127E/L162R/M171V/N62H/P40V/Q125Y/R42H/S133A/S149N/S66Y/V115G/V209L/W38E); assay: biochemical; type: binding; conditions: Binding Capacity (IC 50% nM) Other Alleles DR4w15
T6 construct: Epstein-Barr virus (EBV) transformed homozygous cell lines were used as sources; endogenous in cells; host or cells: KT3 (EBV-transformed homozygous B cell line)

DRB1*1101 (DR5w11) = biological target: T7, DRB1*1101 (DR5w11) (Homo sapiens, UniProt P01903+P01911, A100R/A169T/A87E/I96F/K41T/L162R/M171V/P40S/Q125H/Q178H/Q39Y/Q99D/R42S/S66Y/T262R/V115G/W38E); assay: biochemical; type: binding
T7 construct: Epstein-Barr virus (EBV) transformed homozygous cell lines were used as sources; endogenous in cells; host or cells: SWEIG (EBV-transformed homozygous B cell line)
T7 sequence (P01903 26-254, other chains not shown): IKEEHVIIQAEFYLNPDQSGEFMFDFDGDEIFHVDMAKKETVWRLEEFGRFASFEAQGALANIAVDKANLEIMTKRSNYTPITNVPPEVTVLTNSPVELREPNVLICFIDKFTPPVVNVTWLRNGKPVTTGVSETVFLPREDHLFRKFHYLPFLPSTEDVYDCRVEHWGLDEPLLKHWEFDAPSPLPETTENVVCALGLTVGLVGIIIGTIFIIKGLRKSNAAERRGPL

DRB1*1302 (DR6w19) = biological target: T8, DRB1*1302 (DR6w19) (Homo sapiens, UniProt P01903+P01911, A100E/A169T/K41T/L162R/M171V/P40S/Q125H/Q178H/Q39Y/Q99D/R42S/S66N/T262R/V115G/W38E/Y61H); assay: biochemical; type: binding
T8 construct: Epstein-Barr virus (EBV) transformed homozygous cell lines were used as sources; the source of Class II molecules the EBV transformed homozygous cell line H0301; endogenous in cells; host or cells: H0301 (EBV-transformed homozygous B cell line)

DRB1*0802 (DR8w2) = biological target: T9, DRB1*0802 (DR8w2) (Homo sapiens, UniProt P01903+P01911, A100R/A103L/A169T/F76Y/H45Y/I96F/K41T/L162R/M171V/P40S/Q125H/Q178H/Q39Y/Q99D/R218S/R42G/S66Y/V115G/W38E); assay: biochemical; type: binding
T9 construct: Epstein-Barr virus (EBV) transformed homozygous cell lines were used as sources; endogenous in cells; host or cells: OLL (EBV-transformed homozygous B cell line)

DRB1*0901 (DR9) = biological target: T10, DRB1*0901 (DR9) (Homo sapiens, UniProt P01903+P01911, A100R/A103E/D57H/D86V/F55Y/F60I/F76Y/I96F/K127E/L162R/M171V/P40D/Q125H/Q99R/R33Q/R42F/S133A/S66N/T210M/V115G/W38K/Y107V/Y59G/Y89S); assay: biochemical; type: binding
T10 construct: Epstein-Barr virus (EBV) transformed homozygous cell lines were used as sources; endogenous in cells

DRB1*1201 (DR5w12) = biological target: T11, DRB1*1201 (DR5w12) (Homo sapiens, UniProt P01903+P01911, A100R/A169T/D57E/D86V/F55L/H45Y/K41T/L162R/M171V/P40S/Q125H/Q178H/Q39Y/Q99D/R42G/S66L/T262R/V114A/V67L/W38E/Y59H/Y61H/Y89S); assay: biochemical; type: binding
T11 construct: Epstein-Barr virus (EBV) transformed homozygous cell lines were used as sources; endogenous in cells; host or cells: Herluf (EBV-transformed homozygous B cell line)

DRB1*0301 (DR3w17) [2] = biological target: T12, DRB1*0301 (DR3w17) (Homo sapiens, UniProt P01903+P01911, A100K/A102G/A103R/A169T/F55Y/I96L/K41T/L162R/M171V/P40S/Q125H/Q178H/Q39Y/R42S/S66N/T106N/T262R/W38E/Y61H); conditions: read-out: Binding Capacity (IC 50% nM) Other Alleles DR3
DRB1*0301 (DR3w17) [3] = biological target: T12, DRB1*0301 (DR3w17); assay: biochemical; conditions: Binding Capacity (IC50% nM) DR3
[4] = Binding Capacity (IC 50% nM) DR1,4,7 DR7
[5] = read-out: Binding Capacity (IC 50% nM) Other Alleles DR5w11
[6] = read-out: Binding Capacity (IC 50% nM) Other Alleles DR6w19
[7] = Binding Capacity (IC50% nM) DR8w2
[8] = read-out: Binding Capacity (IC 50% nM) Other Alleles DR8w2
[9] = read-out: Binding Capacity (IC 50% nM) Other Alleles DR5w12

| SMILES | IC50 (DRB1*0101 (DR1)) [nM] | IC50 (DRB1*0701 (DR7); [4]) [nM] | IC50 (DRB1*0405 (DR4w15)) [nM] | IC50 (DRB1*1101 (DR5w11); [5]) [nM] | IC50 (DRB1*1302 (DR6w19); [6]) [nM] | IC50 (DRB1*0802 (DR8w2); [7]) [nM] | IC50 (DRB1*0802 (DR8w2); [8]) [nM] | IC50 (DRB1*1201 (DR5w12); [9]) [nM] | IC50 (DRB1*0301 (DR3w17) [2]) [nM] | IC50 (DRB1*0301 (DR3w17) [3]) [nM] | further results |
| --- | --- | --- | --- | --- | --- | --- | --- | --- | --- | --- | --- |
| CC[C@H](C)[C@H](NC(=O)[C@H](CO)NC(=O)[C@@H](N)CO)C(=O)N[C@H](C(=O)N[C@@H](Cc1ccccc1)C(=O)NCC(=O)N[C@@H](C)C(=O)N[C@@H](Cc1ccccc1)C(=O)N1CCC[C@H]1C(=O)N[C@@H](CO)C(=O)N[C@@H](CC(C)C)C(=O)N[C@@H](Cc1c[nH]cn1)C(=O)N[C@@H](CO)C(=O)NCC(=O)N[C@@H](CS)C(=O)N[C@@H](CS)C(=O)O)[C@@H](C)CC [Peptide 1136.38] |  |  |  |  |  |  |  |  |  |  | Total Alleles Bound [1]: 6 |
| CC(C)[C@H](NC(=O)[C@H](CO)NC(=O)[C@@H](NC(=O)[C@H](C)NC(=O)[C@H](CO)NC(=O)[C@H](CO)NC(=O)[C@H](C)NC(=O)[C@H](C)NC(=O)[C@H](Cc1ccc(O)cc1)NC(=O)[C@@H](NC(=O)[C@H](CO)NC(=O)CNC(=O)[C@H](CCC(N)=O)NC(=O)[C@@H]1CCCN1C(=O)[C@@H](N)CCC(=O)O)[C@@H](C)O)[C@@H](C)O)C(=O)N[C@@H](CC(=O)O)C(=O)O [Peptide 1136.71] | < 1000 | < 1000 | < 1000 | > 1000 | > 1000 | > 10000 | > 1000 | > 1000 | > 1000 | > 10000 | IC50 (DRB1*0401 (DR4w4); Binding Capacity (IC 50% nM) DR1,4,7 DR4w4): < 1000 nM; IC50 (DRB1*1501 (DR2w2b); Binding Capacity (IC50% nM) DR2w2b): > 10000 nM; IC50 (DRB1*1501 (DR2w2b); read-out: Binding Capacity (IC 50% nM) Other Alleles DR2w2b): > 1000 nM; IC50 (DRB5*0101 (DR2w2a); read-out: Binding Capacity (IC 50% nM) Other Alleles DR2w2a): > 1000 nM; IC50 (DRB1*1302 (DR6w19); Binding Capacity (IC50% nM) DR6w19): > 10000 nM; IC50 (DRB1*0901 (DR9); Binding Capacity (IC 50% nM) Other Alleles DR9): < 1000 nM; IC50 (DRB1*1201 (DR5w12); Binding Capacity (IC50% nM) DR5w12): > 10000 nM |
| CC[C@H](C)[C@H](NC(=O)[C@H](CC(C)C)NC(=O)[C@H](Cc1ccccc1)NC(=O)[C@H](CS)NC(=O)[C@@H](NC(=O)[C@H](C)NC(=O)[C@@H](N)Cc1ccccc1)[C@@H](C)O)C(=O)N1CCC[C@H]1C(=O)N[C@@H](CC(C)C)C(=O)N[C@H](C(=O)N[C@@H](CO)C(=O)N[C@@H](CCC(N)=O)C(=O)N[C@@H](Cc1ccccc1)C(=O)N[C@@H](Cc1ccccc1)C(=O)N[C@@H](CC(C)C)C(=O)N1CCC[C@H]1C(=O)O)[C@@H](C)O [Peptide 1136.14] | < 1000 | < 1000 | < 1000 | > 1000 | > 1000 | > 10000 | > 1000 | > 1000 | > 1000 | > 10000 | IC50 (DRB1*0401 (DR4w4); read-out: Binding Capacity (IC 50% nM) DR1,4,7 DR4w4): > 1000 nM; IC50 (DRB1*0701 (DR7); Binding Capacity (IC50% nM) DR7): 100 nM; IC50 (DRB1*1501 (DR2w2b); Binding Capacity (IC 50% nM) Other Alleles DR2w2b): < 1000 nM; IC50 (DRB5*0101 (DR2w2a); Binding Capacity (IC 50% nM) Other Alleles DR2w2a): < 1000 nM; IC50 (DRB1*1101 (DR5w11); Binding Capacity (IC50% nM) DR5w11): > 10000 nM; IC50 (DRB1*0901 (DR9); read-out: Binding Capacity (IC 50% nM) Other Alleles DR9): > 1000 nM |
